Measurements published in article PMC7470115, “Design, synthesis and biological evaluation of novel tetrahydrothieno [2,3-c]pyridine substitued benzoyl thiourea derivatives as PAK1 inhibitors in triple negative breast cancer” (Journal of Enzyme Inhibition and Medicinal Chemistry, 2020).
Where two headings read alike, the source gives them in different places.

Columns and labels:
[1] = target: T1, PAK1 (Homo sapiens, UniProt Q13153); assay: PAK1 enzymatic assay (Kinase-Glo Plus / ADP-Glo luminescence); assay type: biochemical
Procedure: These assays were carried out as described previously. All of the enzymatic reactions were conducted at 30 °C for 40 min. The 50 µl reaction mixture contains 40 mM Tris, pH 7.4, 10 mM MgCl2, 0.1 mg/ml BSA, 1 mM DTT, 50 µM ATP, 0.2 μg/ml PAK1 and 100 uM lipid substrate. The compounds were diluted in 10% DMSO and 5 µl of the dilution was added to a 50 µl reaction so that the final concentration of DMSO is 1% in all of the reactions. The assay was performed using the Kinase-Glo Plus luminescence kinase assay kit and ADP-Glo Plus luminescence kinase assay kit. It measures kinase activity by quantitating the amount of ATP remaining in solution following a kinase reaction. The luminescent signal from the assay is correlated with the amount of ATP present and is inversely correlated with the amount of kinase activity. The IC50 values were calculated using nonlinear regression with normalised dose − response fit using Prism GraphPad software.

[2] = test system: MDA-MB-231 cells; assay: Cell viability assay (MTT); assay type: cell-based; details: MTT
Procedure: (§1) MDA-MB-231 were purchased from American Type Culture Collection (ATCC, Manassas, VA, USA). Cells were cultured in DMEM with 10% foetal bovine serum and incubated with 5% CO2. Antibodies used in this study were as follows: cdc25c (4688, CST), pcdc2^Tyr[15] (4539, CST), cyclinB1 (4135, CST), PAK1 (ab223849, CST), p-PAK1^Ser199 (ab192814, abcam), JNK (9252, CST), p-JNK (9255, CST), c-Jun (9165, CST), p-c-Jun (3270, CST), p-c-Raf^Ser259(9421, CST), p-MEK ^Ser217/221 (9154, CST), p-ERK ^Thr202/Tyr204 (9101, CST), β-actin (3700, CST). MTT (M2128) was purchased from Sigma- Aldrich (St. Louis, MO, USA).
Cells were dispensed in 96-well plates at a density of 5 × 10^4 cells/ml. After 24 h or 48 h incubation, cells were treated with different concentrations of compounds for the indicated time periods. Cell viability was measured by the MTT assay.

[3] = test system: MDA-MB-231 cells; assay: Cell cycle assay (PI staining, flow cytometry); assay type: cell-based; details: 2.5, 5, 10 μM, 48 h
Procedure: For cell cycle detection, MDA-MB-231 cells were treated with 2.5, 5, 10 μM 7j for 48 h and then ethyl alcohol-fixed at 4 °C for 24 h. Then the cell cycle distribution were determined by flow cytometry analysis of PI staining.

[4] = target: T1, PAK1; assay: Western blot of PAK1 and p-PAK1 Ser199 in MDA-MB-231 cells; assay type: cell-based; details: 48 h
Procedure: as §1
(§2) Cells were treated with 7j for indicated times. Both adherent and floating cells were collected. Western blot analysis was carried out. Briefly, the cell pellets were resuspended with lysis buffer consisting of Hepes 50 mM pH 7.4, Triton-X-100 1%, sodium orthovanada 2 mM, sodium fluoride 100 mM, edetic acid 1 mM, PMSF 1 mM, aprotinin (Sigma, MO, USA) 10 mg/L and leupeptin (Sigma) 10 mg/L and lysed at 4 °C for 1 h. After 12,000 rpm centrifugation for 15 min, the protein content of supernatant was determined by the Bio- Rad DC protein assay (Bio-Rad Laboratories, Hercules, CA, USA). Equal amounts of the total protein were separated by 10–15% SDS-PAGE and transferred to PVDF membranes, the membranes were soaked in blocking buffer (5% skimmed milk or BSA). Proteins were detected using primary antibodies, followed by HRP-conjugated secondary antibody and visualised by using ECL as the HRP substrate. Quantification of immunoblot was performed by Quantity One 4.4.

[5] = target: T1, PAK1; assay: Cellular thermal shift assay (CETSA); assay type: cell-based; details: 10 μM, 24 h; 48, 52, 56 °C
Procedure: The ability of 7j to interact with and stabilise PAK1 protein in intact cells, was analysed as described before. Briefly, cells cultured in 100 × 20 mm tissue culture dishes at 90% confluence were treated with media containing DMSO or 7j (10 μM) for 24 h. After that cells were detached with trypsin and re-suspended in PBS. The cell suspension was heated for 3 min to 48, 52, and 56 °C. Subsequently, cells were lysed using liquid nitrogen and two repeated cycles of freeze-thaw. Precipitated proteins were separated from the soluble fraction by centrifugation at 17,000 g for 20 min. Soluble proteins, collected in the supernatant, were kept at −80 °C until Western blot analysis.

[6] = test system: MDA-MB-231 cells; assay: Colony formation assay; assay type: cell-based
[7] = test system: cdc25c/cdc2 pathway; assay: Immunofluorescence and western blot of cdc25c/cdc2 pathway in MDA-MB-231 cells; assay type: cell-based
Procedure: (§3) For immunofluorescence staining, non-specific antibody binding was blocked by incubating with PBS containing 1.5% goat serum. The MDA-MB-231 cells were sequentially incubated, starting with p-cdc2^Tyr[15] antibody (1:200), p-ERK1/2 ^Thr202/Tyr204 antibody (1:200) diluted in PBS containing 1% BSA incubated overnight at 4 °C, followed by addition of fluorescent-labelled secondary antibodies for 1 h at room temperature.
as §2
Cells were transfected with PAK1 (6361, CST) and negative control (6568, CST) siRNAs at 100 nM final concentration using Lipofectamine RNAiMAX/Lip3000 reagent (Invitrogen) according to the manufacturer’s instructions. The transfected cells were used for subsequent experiments 48 h later.

[8] = test system: MAPK-ERK pathway; assay: Immunofluorescence and western blot of MAPK-ERK pathway in MDA-MB-231 cells; assay type: cell-based
Procedure: as §3, §2

[9] = test system: MAPK-JNK pathway; assay: Western blot of MAPK-JNK pathway in MDA-MB-231 cells; assay type: cell-based; details: 2.5, 5, 10 µM, 48 h western blot
Procedure: as §2

[10] = 2.5, 5, 10 µM, 48 h western blot

T1 sequence (Q13153 whole entry): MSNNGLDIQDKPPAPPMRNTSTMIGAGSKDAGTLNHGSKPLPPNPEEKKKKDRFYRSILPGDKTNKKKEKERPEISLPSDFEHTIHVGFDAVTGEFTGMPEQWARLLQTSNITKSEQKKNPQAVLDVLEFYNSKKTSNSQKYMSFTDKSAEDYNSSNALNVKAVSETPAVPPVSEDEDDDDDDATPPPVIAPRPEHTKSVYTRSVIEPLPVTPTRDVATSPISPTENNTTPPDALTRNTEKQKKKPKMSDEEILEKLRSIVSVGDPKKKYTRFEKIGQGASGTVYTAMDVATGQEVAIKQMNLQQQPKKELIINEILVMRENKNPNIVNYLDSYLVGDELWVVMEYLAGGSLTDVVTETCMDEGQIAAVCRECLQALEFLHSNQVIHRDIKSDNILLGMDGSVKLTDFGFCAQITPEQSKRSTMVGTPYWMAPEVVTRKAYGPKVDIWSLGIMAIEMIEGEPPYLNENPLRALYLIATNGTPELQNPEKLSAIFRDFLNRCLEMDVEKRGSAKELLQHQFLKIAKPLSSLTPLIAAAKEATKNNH

- Fold less PAK1 inhibitory activity in comparison to the standard FRAX597 ([1]; 7j versus FRAX597): over 10 fold
- IC50 ([1]; tested in triplicate, mean ± SD, 50 µM ATP, read-out: Kinase inhibitory activity (IC50, μM) PAK1): 0.21 ± 0.05 µM
- IC50 ([1]; value given in nM in the text, read-out: PAK1 IC50): 0.209 µM
- IC50 ([2]; Homo sapiens, MDA-MB-231, 24 h, 24 h, read-out: MDA-MB-231 cell viability IC50, 24 h): 7.37 µM
- IC50 ([2]; Homo sapiens, MDA-MB-231, 48 h, 48 h, read-out: MDA-MB-231 cell proliferation IC50, 48 h): 4.67 µM
- IC50 ([2]; 48 h, read-out: MDA-MB-231 cell proliferation IC50, 48 h): 4.67 µM
- PAK1 expression (western blot) ([4]; larger dose 10 μM): suppressed PAK1 expression
- PAK1 expression (western blot) ([4]; smaller dose 2.5 μM and 5 μM): did not affect PAK1 expression
- Thermal stabilisation of PAK1 (CETSA) [5]: could stabilise PAK1
SMILES: NC(=O)c1c(NC(=S)NC(=O)c2cccc(C(F)(F)F)c2)sc2c1CCN(C(=O)C1CC1)C2 [Compound 7j, 6-(cyclopropanecarbonyl)-2–(3-(3-(trifluoromethyl)benzoyl)thioureido)-4,5,6,7-tetrahydrothieno[2,3-c]pyridine-3-carboxamide]
- Cell cycle arrest [3]: induced obviously G2/M cell cycle arrest
- Phosphorylation of PAK1 at Ser199 ([4]; 2.5, 5, 10 μM): inhibited the phosphorylation of PAK1 at Ser199
- Proliferation and colony formation ability of MDA-MB-231 cells [6]: obviously inhibited
- p-cdc2 Tyr15 expression ([7]; 5 µM, 48 h immunofluorescence): obviously increased
- Expression of cdc25c, cyclinB1, Pin1 and NEDD8 [7, 10]: could decrease the expression
- Phosphorylation of p-cdc2 at Tyr15 after PAK1 knockdown ([7]; si-PAK1, 5 μM, 48 h): almost did not affect
- p-ERK1/2 Thr202/Tyr204 expression and nucleus distribution ([8]; 5 µM, 48 h immunofluorescence): inhibited its expression and nucleus distribution
- Phosphorylation of p-c-Raf, p-MEK1/2 and p-ERK1/2 [8, 10]: suppressed MAPK-ERK pathway
- JNK and c-Jun phosphorylation [9]: decrease of JNK and c-Jun phosphorylation
